Reference: article PMC7957578, “N-(1,3,4-Oxadiazol-2-yl)Benzamides as Antibacterial Agents against Neisseria gonorrhoeae” (International Journal of Molecular Sciences, 2021)
In brackets after ≈: the same amount, converted by molar mass. Like-named read-outs stand apart in the source and are kept apart here.

Assays:
N. gonorrhoeae 165 = assay: MIC/MBC against N. gonorrhoeae clinical isolate 165; type: cell-based; settings: Neisseria gonorrhoeae
Experimental: (§1) Briefly, bacteria were grown overnight on chocolate agar II at 37° C in the presence of 5% CO2. Afterwards, a bacterial suspension equivalent to 1.0 McFarland standard was prepared and diluted in brucella broth supplemented with yeast extract, neopeptone, hematin, pyridoxal, and NAD. Test agents were added in the first row of the 96-well plates and serially diluted along the plates. Plates were then incubated at 37° C in the presence of 5% CO2 for 24 h. […] Plates were then incubated at 37 ° C in the presence of 5% CO2 for 24 h. The MBC was categorized as the lowest concentration that reduced bacterial growth by 99.9% [45, 46, 47].

N. gonorrhoeae 194 = assay: MIC/MBC against N. gonorrhoeae clinical isolate 194; type: cell-based; settings: Neisseria gonorrhoeae
Experimental: as §1

N. gonorrhoeae 197 = assay: MIC/MBC against N. gonorrhoeae clinical isolate 197; type: cell-based; settings: Neisseria gonorrhoeae
Experimental: as §1

N. gonorrhoeae 200 = assay: MIC/MBC against N. gonorrhoeae clinical isolate 200; type: cell-based; settings: Neisseria gonorrhoeae
Experimental: as §1

N. gonorrhoeae WHO L = assay: MIC/MBC against N. gonorrhoeae WHO L reference strain; type: cell-based; settings: Neisseria gonorrhoeae
Experimental: as §1

S. aureus ATCC 25923 = assay: MIC/MBC (CLSI broth microdilution) against S. aureus ATCC 25923; type: cell-based; settings: Staphylococcus aureus, ATCC25923, S. aureus ATCC 25923
Experimental: (§2) The minimum inhibitory concentrations (MICs) of the tested compounds and control drugs, linezolid, vancomycin, and gentamicin, were determined using the broth microdilution method according to the guidelines outlined by the Clinical and Laboratory Standards Institute (CLSI) against clinically relevant bacterial (Staphylococcus aureus, MRSA, Escherichia coli, Enterococcus faecalis and Enterococcus faecium strains. S. aureus, MRSA, E. coli, Enterococcus faecalis and Enterococcus faecium were grown aerobically overnight on tryptone soy agar (TSA) plates at 37° C. Afterwards, a bacterial solution equivalent to 0.5 McFarland standard was prepared and diluted in cation-adjusted Mueller–Hinton broth (CAMHB) (for S. aureus, MRSA, and E. coli) to achieve a bacterial concentration of about 5 × 10^5 CFU/mL. Enterococcus faecalis and Enterococcus faecium 0.5 McFarland standard solution was diluted in tryptone soy broth (TSB) to achieve a bacterial concentration of about 5 × 10^5 CFU/mL. Compounds and control drugs were added in the first row of 96-well plates and serially diluted with the corresponding media containing bacteria. Plates were then incubated as previously described. […] The minimum bactericidal concentration (MBC) was tested by spotting 4 µL from wells with no growth onto TSA plates. Plates were incubated at 37 ° C for at least 18 h before recording the MBC. The MBC was categorized as the lowest concentration that reduced bacterial growth by 99.9% [45, 46, 47].

MRSA USA300 = assay: MIC/MBC (CLSI broth microdilution) against MRSA USA300; type: cell-based, methicillin-resistant Staphylococcus aureus; settings: Staphylococcus aureus, MRSA USA300
Experimental: as §2

E. faecalis ATCC 29212 = assay: MIC/MBC (CLSI broth microdilution) against E. faecalis ATCC 29212; type: cell-based; settings: Enterococcus faecalis, ATCC29212, E. faecalis ATCC 29212
Experimental: as §2

VRE. faecalis ATCC 51299 = assay: MIC/MBC (CLSI broth microdilution) against VRE faecalis ATCC 51299; type: cell-based; settings: Enterococcus, VRE faecalis ATCC 51299
Experimental: as §2

[1] = tested on: L. monocytogenes ATCC 19115; assay: MIC/MBC (CLSI broth microdilution) against L. monocytogenes ATCC 19115; type: cell-based; settings: Listeria monocytogenes, ATCC19115, L. monocytogenes ATCC 19115
[2] = tested on: E. coli BW25113 (wild-type strain); assay: MIC/MBC (CLSI broth microdilution) against E. coli BW25113 wild type; type: cell-based, Escherichia coli; settings: E. coli BW25113 wild-type strain
Experimental: as §2

[3] = tested on: E. coli JW55031 (TolC Mutant); assay: MIC/MBC (CLSI broth microdilution) against E. coli TolC mutant; type: cell-based; settings: Escherichia coli
Experimental: as §2

N. gonorrhoeae = assay: MIC against N. gonorrhoeae in presence of fetal bovine serum; type: cell-based; settings: Neisseria gonorrhoeae, 24 h
[4] = tested on: human colorectal cells (Caco-2); assay: In vitro cytotoxicity, MTS assay; type: cell-based
Experimental: HSGN-237 and -238 were assayed for potential cytotoxicity against a human colorectal adenocarcinoma (Caco-2) cell line, as described previously. Briefly, tested compounds were incubated with caco-2 cells for 24 and 48 h. Then, the cells were incubated with MTS (3-(4,5-dimethylthiazol-2-yl)-5-(3-carboxymethoxyphenyl)-2-(4-sulfophenyl)-2H-tetrazolium) reagent for 4 h before measuring the absorbance values (OD490).
Figure 2 In vitro cytotoxicity assessment of HSGN-237 and -238 (tested in triplicate) against human colorectal cells (Caco-2) after (A) 24 h, and (B) 48 h, using the 3-(4,5-dimethylthiazol-2-yl)-5-(3-carboxymethoxyphenyl)-2-(4-sulfophenyl)-2H-tetrazolium (MTS) assay. Results are presented as percent viable cells relative to DMSO (negative control). Error bars represent standard deviation values. A two-way ANOVA, with post hoc Dunnet’s multiple comparisons test, determined the statistical difference between the values obtained for the compound and DMSO. Asterisks denote statistically significant differences between treatments of cells with either HSGN-237 or -238 as compared to DMSO-treated cells. The experiment was repeated 3 independent times.

[5] = tested on: tested bacterial strains (Table 3); assay: MBC versus MIC against the panel of Gram-positive and Gram-negative pathogens; type: cell-based; settings: MBCs more than three-fold higher than MICs, strains of Table 3
Experimental: While the focus of these new N-(1,3,4-oxadiazol-2-yl)benzamides is towards N. gonorrhoeae, we proceeded to test their activity against other Gram-positive and Gram-negative pathogens. Intriguingly, HSGN-235, HSGN-237, and HSGN-238 had potent activity against the tested Gram-positive bacterial pathogens. For instance, all three compounds had potent activity against the staphylococcal strains, with MICs ranging from 0.25 to 1 µg/mL (Table 3). Furthermore, HSGN-235, HSGN-237, and HSGN-238 maintained potent activity against clinically relevant Gram-positive bacterial pathogens such as vancomycin-resistant enterococci (VRE) and Listeria monocytogenes (Table 3). Additionally, we moved to test if HSGN-235, HSGN-237, and HSGN-238 were active against other Gram-negative bacterial pathogens. […] This lack of activity against Gram-negative bacteria appears to be due to HSGN-235, HSGN-237, and HSGN-238 being a substrate for efflux.
The minimum inhibitory concentrations (MICs) of the tested compounds and control drugs, linezolid, vancomycin, and gentamicin, were determined using the broth microdilution method according to the guidelines outlined by the Clinical and Laboratory Standards Institute (CLSI) against clinically relevant bacterial (Staphylococcus aureus, MRSA, Escherichia coli, Enterococcus faecalis and Enterococcus faecium strains. S. aureus, MRSA, E. coli, Enterococcus faecalis and Enterococcus faecium were grown aerobically overnight on tryptone soy agar (TSA) plates at 37° C. Afterwards, a bacterial solution equivalent to 0.5 McFarland standard was prepared and diluted in cation-adjusted Mueller–Hinton broth (CAMHB) (for S. aureus, MRSA, and E. coli) to achieve a bacterial concentration of about 5 × 10^5 CFU/mL. Enterococcus faecalis and Enterococcus faecium 0.5 McFarland standard solution was diluted in tryptone soy broth (TSB) to achieve a bacterial concentration of about 5 × 10^5 CFU/mL. Compounds and control drugs were added in the first row of 96-well plates and serially diluted with the corresponding media containing bacteria. […]

Structure (SMILES): O=C(Nc1nnc(-c2ccc(Cl)s2)o1)c1ccc(OC(F)(F)F)cc1 [HSGN-238, N-(5-(5-Chlorothiophen-2-yl)-1,3,4-oxadiazol-2-yl)-4-(trifluoromethoxy)benzamide]
- MBC (N. gonorrhoeae 165): 0.25 mg/L (≈ 0.641 µM)
- MIC (N. gonorrhoeae 165): 0.125 mg/L (≈ 0.321 µM)
- MBC (N. gonorrhoeae 194): 0.125 mg/L (≈ 0.321 µM)
- MIC (N. gonorrhoeae 194): 0.125 mg/L (≈ 0.321 µM)
- MBC (N. gonorrhoeae 197): 0.125 mg/L (≈ 0.321 µM)
- MIC (N. gonorrhoeae 197): 0.125 mg/L (≈ 0.321 µM)
- MBC (N. gonorrhoeae 200): 0.125 mg/L (≈ 0.321 µM)
- MIC (N. gonorrhoeae 200): 0.125 mg/L (≈ 0.321 µM)
- MBC (N. gonorrhoeae WHO L): 0.125 mg/L (≈ 0.321 µM)
- MIC (N. gonorrhoeae WHO L): 0.06 mg/L (≈ 0.154 µM)
- MBC (S. aureus ATCC 25923; read-out: MBC): > 64 mg/L
- MIC (S. aureus ATCC 25923; read-out: MIC): 0.25 mg/L (≈ 0.641 µM)
- MBC (MRSA USA300; read-out: MBC): 16 mg/L (≈ 41.1 µM)
- MIC (MRSA USA300; read-out: MIC): 0.25 mg/L (≈ 0.641 µM)
- MBC (E. faecalis ATCC 29212; read-out: MBC): 32 mg/L (≈ 82.1 µM)
- MIC (E. faecalis ATCC 29212; read-out: MIC): 1 mg/L (≈ 2.57 µM)
- MBC (VRE. faecalis ATCC 51299; read-out: MBC): 8 mg/L (≈ 20.5 µM)
- MIC (VRE. faecalis ATCC 51299; read-out: MIC): 0.25 mg/L (≈ 0.641 µM)
- MBC ([1]; read-out: MBC): 32 mg/L (≈ 82.1 µM)
- MIC ([1]; read-out: MIC): 0.5 mg/L (≈ 1.28 µM)
- MIC [2]: >8 mg/L
- MBC ([2]; Escherichia coli, read-out: MBC): > 8 mg/L
- MIC ([2]; Escherichia coli, read-out: MIC): > 8 mg/L
- MBC [3]: 32 mg/L (≈ 82.1 µM)
- MIC [3]: 0.06 mg/L (≈ 0.154 µM)
- MIC (N. gonorrhoeae; 1% FBS added to the media): 0.25 mg/L
- MIC (N. gonorrhoeae; 5% FBS added to the media): 1 mg/L
- MIC (N. gonorrhoeae; 10% FBS added to the media): 1 mg/L
- non-toxic concentration ([4]; Caco-2 cells, 24 and 48 h, MTS assay): up to 16 µg/mL
- non-toxic concentration relative to MIC against N. gonorrhoeae ([4]; Caco-2 non-toxic concentration versus corresponding MIC): 128 times
- type of activity from MBC versus MIC [5]: bacteriostatic agents
